The source made the active and inactive calls. The calls are words filed in the database; no cut-off is given here.
Assays:
Protein Aster-A [1] = molecular target: T1, Protein Aster-A (Homo sapiens, UniProt Q96CP6); assay: Binding affinity to aster A (unknown origin) assessed as change in fluorescence intensity
T1 sequence (Q96CP6 whole entry): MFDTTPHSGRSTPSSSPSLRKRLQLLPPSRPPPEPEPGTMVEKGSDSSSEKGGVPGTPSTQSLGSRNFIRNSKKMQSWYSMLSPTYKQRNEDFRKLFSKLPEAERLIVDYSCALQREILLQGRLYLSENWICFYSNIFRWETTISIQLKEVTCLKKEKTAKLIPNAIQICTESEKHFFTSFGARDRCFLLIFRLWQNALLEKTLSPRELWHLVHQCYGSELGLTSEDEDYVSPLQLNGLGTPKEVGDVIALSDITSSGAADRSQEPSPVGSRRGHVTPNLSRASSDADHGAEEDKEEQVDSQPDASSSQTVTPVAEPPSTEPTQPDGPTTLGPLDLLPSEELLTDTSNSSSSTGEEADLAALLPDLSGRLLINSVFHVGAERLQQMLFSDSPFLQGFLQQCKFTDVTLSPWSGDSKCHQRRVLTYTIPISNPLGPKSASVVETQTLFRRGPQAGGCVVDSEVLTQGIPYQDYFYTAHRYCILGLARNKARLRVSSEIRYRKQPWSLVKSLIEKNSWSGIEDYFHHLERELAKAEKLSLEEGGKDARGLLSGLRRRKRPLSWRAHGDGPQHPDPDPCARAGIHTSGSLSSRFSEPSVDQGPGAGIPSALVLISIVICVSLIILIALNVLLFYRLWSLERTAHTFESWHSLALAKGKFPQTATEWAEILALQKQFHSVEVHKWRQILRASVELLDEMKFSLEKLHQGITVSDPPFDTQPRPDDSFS

Protein Aster-A [2] = molecular target: T1, Protein Aster-A; assay: Binding affinity to aster A (unknown origin) by fluorescence polarization method
[3] = molecular target: T2, Protein Aster-A (Homo sapiens) (UniProt Q96CP6); assay: Binding affinity to aster A (unknown origin) assessed as change in melting temperature by differential scanning fluorimetry analysis
T2 sequence (whole entry): T1 sequence (Q96CP6 whole entry)

MCF7 = assay: Inhibition of autophagy in human MCF7 cells expressing eGFP-LC3; type: functional, cell-based
[4] = molecular target: Oxysterol-binding protein-related protein 1 (OSBPL1A) (Homo sapiens) (UniProt Q9BXW6); assay: Binding affinity to ORP1 (unknown origin)
Sequence of Oxysterol-binding protein-related protein 1 (OSBPL1A) (Homo sapiens) (Q9BXW6 whole entry, looked up): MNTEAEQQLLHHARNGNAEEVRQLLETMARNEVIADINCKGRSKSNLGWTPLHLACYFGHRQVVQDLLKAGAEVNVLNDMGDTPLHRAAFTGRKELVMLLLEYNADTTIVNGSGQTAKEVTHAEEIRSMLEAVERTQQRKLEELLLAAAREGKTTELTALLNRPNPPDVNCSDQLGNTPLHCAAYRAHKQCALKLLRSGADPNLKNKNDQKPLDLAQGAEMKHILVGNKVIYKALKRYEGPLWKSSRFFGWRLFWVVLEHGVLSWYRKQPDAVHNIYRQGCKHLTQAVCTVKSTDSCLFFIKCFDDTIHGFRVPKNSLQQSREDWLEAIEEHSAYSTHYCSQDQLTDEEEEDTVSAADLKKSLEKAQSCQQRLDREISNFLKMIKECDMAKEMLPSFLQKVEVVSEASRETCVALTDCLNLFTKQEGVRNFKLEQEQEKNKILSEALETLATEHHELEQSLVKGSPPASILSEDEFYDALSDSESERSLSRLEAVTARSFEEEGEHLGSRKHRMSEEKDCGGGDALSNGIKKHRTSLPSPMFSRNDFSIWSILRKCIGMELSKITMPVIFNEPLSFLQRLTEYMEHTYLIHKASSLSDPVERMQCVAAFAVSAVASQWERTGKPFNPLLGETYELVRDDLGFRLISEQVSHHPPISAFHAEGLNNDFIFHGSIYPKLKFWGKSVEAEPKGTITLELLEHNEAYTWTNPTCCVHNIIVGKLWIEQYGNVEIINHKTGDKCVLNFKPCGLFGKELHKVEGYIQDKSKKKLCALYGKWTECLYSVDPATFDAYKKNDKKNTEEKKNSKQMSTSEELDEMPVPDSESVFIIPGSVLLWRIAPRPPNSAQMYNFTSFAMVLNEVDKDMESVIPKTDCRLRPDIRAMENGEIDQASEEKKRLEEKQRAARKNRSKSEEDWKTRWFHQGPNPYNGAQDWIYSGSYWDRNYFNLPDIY

Protein Aster-A [5] = molecular target: T1, Protein Aster-A; assay: Displacement of tert-butyl 2-(4-((3-(4-(3-((2-(2,6-dioxopiperidin-3-yl)-1,3-dioxoisoindolin-4-yl)amino)propoxy)butoxy)propyl)carbamoyl)benzamido)-3a,6,7,7a-tetrahydrothiazolo[5,4-c]pyridine-5(4H)-carboxylate from aster A (unknown origin) assessed as change in fluorescence intensity
Protein Aster-A [6] = molecular target: T1, Protein Aster-A; assay: Displacement of 22-NBD-Chol from aster A (unknown origin) by fluorescence polarization method
[7] = Drug uptake in human HeLa cells assessed as increase in intracellular fluorescence at 10 uM incubated for 1 hr by […] microscopic analysis; type: ADME, cell-based
Homo sapiens = species on record: Homo sapiens; assay: Binding affinity to aster B (unknown origin)
[8] = molecular target: Protein Aster-C (Homo sapiens) (UniProt Q8IYS0); assay: Binding affinity to aster C (unknown origin)
Sequence of Protein Aster-C (Homo sapiens) (Q8IYS0 whole entry): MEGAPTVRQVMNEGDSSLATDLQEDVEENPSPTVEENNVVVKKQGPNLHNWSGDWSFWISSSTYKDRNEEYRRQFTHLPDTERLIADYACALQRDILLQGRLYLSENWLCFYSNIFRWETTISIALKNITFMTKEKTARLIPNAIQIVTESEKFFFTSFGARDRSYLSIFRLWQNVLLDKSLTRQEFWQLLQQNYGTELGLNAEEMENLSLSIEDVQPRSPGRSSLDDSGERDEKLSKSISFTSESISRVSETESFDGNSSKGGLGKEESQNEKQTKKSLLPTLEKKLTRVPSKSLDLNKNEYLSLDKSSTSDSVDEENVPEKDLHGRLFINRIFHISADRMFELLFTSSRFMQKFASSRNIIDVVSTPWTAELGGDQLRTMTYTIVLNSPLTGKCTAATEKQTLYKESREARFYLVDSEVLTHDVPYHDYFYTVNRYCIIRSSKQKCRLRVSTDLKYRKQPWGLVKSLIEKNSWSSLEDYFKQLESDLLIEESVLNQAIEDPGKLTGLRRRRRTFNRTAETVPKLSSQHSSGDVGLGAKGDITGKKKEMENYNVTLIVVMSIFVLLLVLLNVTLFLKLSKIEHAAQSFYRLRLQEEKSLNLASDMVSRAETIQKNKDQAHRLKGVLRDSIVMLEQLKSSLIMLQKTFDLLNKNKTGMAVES

[9] = molecular target: T3, Steroidogenic acute regulatory protein, mitochondrial (Homo sapiens) (UniProt P49675); assay: Binding affinity to STARD1 (unknown origin)
T3 sequence (whole entry): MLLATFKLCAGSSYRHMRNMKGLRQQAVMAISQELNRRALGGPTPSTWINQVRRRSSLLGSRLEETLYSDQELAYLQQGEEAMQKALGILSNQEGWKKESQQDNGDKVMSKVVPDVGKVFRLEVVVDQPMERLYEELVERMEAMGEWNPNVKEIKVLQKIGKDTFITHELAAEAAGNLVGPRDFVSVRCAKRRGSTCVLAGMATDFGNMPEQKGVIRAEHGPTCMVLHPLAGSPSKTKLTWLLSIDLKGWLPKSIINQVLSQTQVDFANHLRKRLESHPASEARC

[10] = molecular target: T4, Protein cereblon/Protein Aster-A (Homo sapiens, UniProt Q96SW2+Q96CP6); assay: PROTAC activity at CRBN/aster A in human HeLa cells at 10 uM incubated for 18 hrs by Western blotting analysis; type: cell-based
Target sequence in this assay (Q96SW2 whole entry, looked up, one chain of several): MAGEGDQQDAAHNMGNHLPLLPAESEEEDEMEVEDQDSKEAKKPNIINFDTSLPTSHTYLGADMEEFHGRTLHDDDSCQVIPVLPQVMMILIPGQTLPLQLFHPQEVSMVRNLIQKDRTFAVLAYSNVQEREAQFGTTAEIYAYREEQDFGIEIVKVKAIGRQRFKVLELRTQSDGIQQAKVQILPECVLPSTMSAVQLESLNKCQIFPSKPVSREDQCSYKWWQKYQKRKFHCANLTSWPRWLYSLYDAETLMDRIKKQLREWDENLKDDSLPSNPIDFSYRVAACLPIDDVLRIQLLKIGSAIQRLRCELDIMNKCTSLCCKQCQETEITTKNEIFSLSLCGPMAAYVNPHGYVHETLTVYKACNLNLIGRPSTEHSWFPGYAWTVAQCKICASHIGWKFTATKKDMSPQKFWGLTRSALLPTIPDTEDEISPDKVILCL

[11] = molecular target: T4, Protein cereblon/Protein Aster-A; assay: PROTAC activity at CRBN/aster A in human HeLa cells assessed as aster A degradation incubated for 18 hrs by Western blotting analysis; type: cell-based
[12] = molecular target: T4, Protein cereblon/Protein Aster-A; assay: PROTAC activity at CRBN/aster A in human HeLa cells assessed as maximum degradation incubated for 18 hrs by Western blotting analysis; type: cell-based
Target sequence in this assay (Q96SW2 whole entry, looked up, one chain of several): as above

[13] = molecular target: T4, Protein cereblon/Protein Aster-A; assay: PROTAC activity at CRBN/aster A in human HeLa cells assessed as aster A degradation at 10 uM incubated for 18 hrs in presence of MLN4924 by Western blotting analysis; type: cell-based
Target sequence in this assay (Q96SW2 whole entry, looked up, one chain of several): as above

[14] = molecular target: T4, Protein cereblon/Protein Aster-A; assay: PROTAC activity at CRBN/aster A in human HeLa cells assessed as aster A degradation at 10 uM incubated for 18 hrs in presence of MG132 by Western blotting analysis; type: cell-based
Target sequence in this assay (Q96SW2 whole entry, looked up, one chain of several): as above

[15] = molecular target: T2, Protein Aster-A (Homo sapiens); assay: Induction of aster A degradation in human MCF7 cells; type: cell-based
[16] = molecular target: T2, Protein Aster-A (Homo sapiens); assay: Induction of aster A degradation in human A549 cells; type: cell-based

SMILES | Kd (Protein Aster-A [1]) [nM] | Kd (Protein Aster-A [2]) [nM] | ΔTm [3] [°C] | Activity [4] | IC50 (Protein Aster-A [6]) [nM] | Autophagy inhibition (active/not active) (MCF7) | IC50 (Protein Aster-A [5]) [nM] | also measured
Cc1ncsc1-c1ccc(CNC(=O)[C@H]2C[C@H](O)CN2C(=O)[C@@H](NC(=O)CCCCCCNC(=O)c2ccc(C(=O)Nc3nc4c(s3)CN(C(=O)OC(C)(C)C)CC4)cc2)C(C)(C)C)cc1 | – | – | 3.6 | – | 4680 | – | 2750 | –
Cc1ncsc1-c1ccc(CNC(=O)[C@H]2C[C@H](O)CN2C(=O)[C@@H](NC(=O)CCCCCCCCCNC(=O)c2ccc(C(=O)Nc3nc4c(s3)CN(C(=O)OC(C)(C)C)CC4)cc2)C(C)(C)C)cc1 | – | – | 1.6 | – | > 10000 | – | > 10000 | –
CC(C)(C)OC(=O)N1CCC2N=C(NC(=O)c3ccc(C(=O)NCCCCCCNc4cccc5c4C(=O)N(C4CCC(=O)NC4=O)C5=O)cc3)SC2C1 (configuration not stated) | 765 | 745 | 3.2 | Active | – | inactive | – | Drug uptake [7]: Active
CC(C)Oc1ccc(C(=O)Nc2nc3c(s2)CN(C(=O)OC(C)(C)C)CC3)cc1 | – | – | 6.8 | – | 1930 | – | 1180 | –
CC(C)(C)OC(=O)N1CCC2N=C(NC(=O)c3ccc(C(=O)NCCCOCCOCCCNc4cccc5c4C(=O)N(C4CCC(=O)NC4=O)C5=O)cc3)SC2C1 (configuration not stated) | 110 | 37 | 5 | Active | – | – | – | –
CCN(CC)CCO[C@H]1CC[C@@]2(C)C(=CC[C@@H]3[C@@H]2CC[C@]2(C)C(=O)CC[C@@H]32)C1 | – | – | 5.6 | – | – | – | – | –
Cc1ncsc1-c1ccc(CNC(=O)[C@H]2C[C@H](O)CN2C(=O)[C@@H](NC(=O)COCCOCCNC(=O)c2ccc(C(=O)Nc3nc4c(s3)CN(C(=O)OC(C)(C)C)CC4)cc2)C(C)(C)C)cc1 | – | – | 4.4 | – | 3700 | – | 1470 | –
CC12CCC(O)CC1CCc1cnn(-c3ccccc3F)c12 (configuration not stated) | – | – | 0.2 | – | > 10000 | – | > 10000 | –
CC(C)(C)OC(=O)N1CCC2N=C(NC(=O)c3ccc(C(=O)NCCCOCCOCCOCCCNc4cccc5c4C(=O)N(C4CCC(=O)NC4=O)C5=O)cc3)SC2C1 (configuration not stated) | 86 | 68 | 5.8 | Active | – | Active | – | –
CC(C)(C)OC(=O)N1CCC2N=C(NC(=O)c3ccc(C(=O)NCCOCCOCCNc4cccc5c4C(=O)N(C4CCC(=O)NC4=O)C5=O)cc3)SC2C1 (configuration not stated) | > 5000 | 149 | 4 | Active | – | Active | – | –

More lines, main results first:

Kd (Protein Aster-A [1]) [nM] | Kd (Protein Aster-A [2]) [nM] | ΔTm [3] [°C] | Activity [4] | IC50 (Protein Aster-A [6]) [nM] | SMILES | Autophagy inhibition (active/not active) (MCF7) | IC50 (Protein Aster-A [5]) [nM] | also measured
> 5000 | > 5000 | 1.2 | Active | – | CC(C)(C)OC(=O)N1CCC2N=C(NC(=O)c3ccc(C(=O)NCCCCCCCCCCNc4cccc5c4C(=O)N(C4CCC(=O)NC4=O)C5=O)cc3)SC2C1 (configuration not stated) | inactive | – | –
> 5000 | > 5000 | 0.3 | – | – | CC(C)(C)OC(=O)NCCOCCOCCNc1cccc2c1C(=O)N(C1CCC(=O)NC1=O)C2=O (configuration not stated) | – | – | –
88 | 49 | 4.9 | Active | – | CC(C)(C)OC(=O)N1CCC2N=C(NC(=O)c3ccc(C(=O)NCCOCCOCCOCCNc4cccc5c4C(=O)N(C4CCC(=O)NC4=O)C5=O)cc3)SC2C1 (configuration not stated) | – | – | –
> 5000 | > 5000 | 0.1 | – | – | Nc1cccc2c1C(=O)N(C1CCC(=O)NC1=O)C2=O (configuration not stated) [POMALIDOMIDE] | – | – | –
83 | 90 | 5.7 | Active | – | CC(C)(C)OC(=O)N1CCC2N=C(NC(=O)c3ccc(C(=O)NCCCOCCCCOCCCNc4cccc5c4C(=O)N(C4CCC(=O)NC4=O)C5=O)cc3)SC2C1 (configuration not stated) | Active | – | Activity (Homo sapiens): inactive; Activity [8]: inactive; Activity [9]: inactive; Activity [10]: 50%; Activity [11]: Dose-Dependent Effect; DC50 [11]: 4800 nM; Emax [12]: 60%; Activity [13]: inactive; Activity [14]: inactive; Activity [15]: inactive; Activity [16]: inactive

— ChEMBL document CHEMBL5550107, “Fluorescent probes and degraders of the sterol transport protein Aster-A” (Bioorg Med Chem, 2024)
